These results are taken from patent US20150296773A1, “COMPOSITIONS COMPRISING A […] MIXTURE AND AN INSECTICIDE” (Bayer CropScience AG, priority 2012, published 2015).

Common to all, as to format: in vivo
In assay [1] the test system is Myzus persicae. Put plainly: Myzus persicae spray test (Example A, pepper leaves). The settings on record: for Efficacy in % after 5 d: mortality after 5 d; for Efficacy in % after 4 d: mortality after 4 d. How it is done: (§1) Myzus persicae—Spray Test
(§2) Solvent: 7 parts by weight of dimethylformamide Emulsifier: 2 parts by weight of alkylaryl polyglycolether
(§3) To produce a suitable preparation of active compound, 1 part by weight of active compound is mixed with the stated amount of solvent and emulsifier, and the concentrate is diluted with emulsifier-containing water to the desired concentration. To produce a suitable preparation of a spore suspension the spores are diluted with emulsifier-containing water to the desired concentration Ammonium salt and/or penetration enhancer in a dosage of 1000 ppm are added to the desired concentration, if necessary.
Pepper leaves (Capsicum annuum) which are heavily infested by the green peach aphid (Myzus persicae) are treated by being sprayed with the preparation of the active compound of the desired concentration.
After the specified period of time, mortality in % is determined 100% means all the aphids have been killed; 0% means none of the aphids have been killed. The mortality values determined thus are recalculated using the Colby-formula (see above).

In assay [2] the test system is Myzus persicae. Description: Myzus persicae spray test (Example G, Chinese cabbage leaf-disks). Conditions: for Efficacy in % after 6 d: mortality after 6 d; for Efficacy in % after 1 d: mortality after 1 d. The procedure:
as §1
(§4) Solvent: 78.0 parts by weight acetone • 1.5 parts by weight dimethylformamide Emulsifier: 0.5 parts by weight alkylarylpolyglycolether
(§5) To produce a suitable preparation of active compound, 1 part by weight of active compound is mixed with the stated amount of solvent and emulsifier, and the concentrate is diluted with emulsifier-containing water to the desired concentration. To produce a suitable preparation of a spore suspension the spores are diluted with emulsifier-containing water to the desired concentration.
Chinese cabbage (Brassica pekinensis) leaf—disks infected with all instars of the green peach aphid (Myzus persicae) are sprayed with a preparation of the active ingredient of the desired concentration.
After the specified period of time, mortality in % is determined 100% means all aphids have been killed; 0% means none of the aphids have been killed. The mortality values determined thus are recalculated using the Colby-formula (see above).

Assay [3] deals with Tetranychus urticae. Description: Tetranychus urticae spray test, OP-resistant (Example H, French beans). Conditions: for Efficacy in % after 6 d: mortality after 6 d; for Efficacy in % after 2 d: mortality after 2 d. The procedure:
(§6) Tetranychus urticae—Spray Test, OP-Resistant
as §4, §5
French beans (Phaseolus vulgaris) which are heavily infested with all stages of the two spotted spidermite (Tetranychus urticae), are sprayed with a preparation of the active ingredient of the desired concentration.
After the specified period of time, mortality in % is determined 100% means all spider mites have been killed and 0% means none of the spider mites have been killed. The mortality values determined thus are recalculated using the Colby-formula (see above).

Another assay relates to Aphis gossypii. Put plainly: Aphis gossypii spray test (Example B, cotton leaves). Conditions: mortality after 1 d. How it is done: Aphis gossypii—Spray Test
as §2, §3
Cotton leaves (Gossypium hirsutum) which are heavily infested by the cotton aphid (Aphis gossypii) are treated by being sprayed with the preparation of the active compound of the desired concentration.
After the specified period of time, the mortality in % is determined 100% means all the aphids have been killed; 0% means none of the aphids have been killed. The mortality values determined thus are recalculated using the Colby-formula (see above).

Another assay deals with Phaedon cochleariae. Description: Phaedon cochleariae spray test (Example D, Chinese cabbage leaf-disks). The settings on record: mortality after 6 d. How it is done: Phaedon cochleariae—Spray Test
Solvent: 78.0 parts by weight of acetone • • 1.5 parts by weight of dimethylformamide Emulsifier: 0.5 parts by weight of alkylaryl polyglycolether
as §5
Chinese cabbage (Brassica pekinensis) leaf-disks are sprayed with a preparation of the active ingredient of the desired concentration. Once dry, the leaf disks are infested with mustard beetle larvae (Phaedon cochleariae).
After the specified period of time, mortality in % is determined 100% means all beetle larvae have been killed and 0% means none of the beetle larvae have been killed. The mortality values determined thus are recalculated using the Colby-formula (see above).

Assay [4] relates to Tetranychus urticae. Description: Tetranychus urticae spray test, OP-resistant (Example C, bean plants). The settings on record: 0.8 ppm; mortality after 6 d. The procedure:
as §6, §2
(§7) To produce a suitable preparation of active compound, 1 part by weight of active compound is mixed with the stated amount of solvent and emulsifier, and the concentrate is diluted with emulsifier-containing water to the desired concentration. To produce a suitable preparation of a spore suspension the spores are diluted with emulsifier-containing water to the desired concentration Ammonium salt and/or penetration enhancer in a dosage of 1000 ppm are added to the desired concentration if necessary.
Bean plants (Phaseolus vulgaris) which are heavily infested with all stages of the two-spotted spider mite (Tetranychus urticae) are treated by being sprayed with the preparation of the active compound of the desired concentration.
After the specified period of time, mortality in % is determined 100% means all the spider mites have been killed; 0% means none of the spider mites have been killed. The mortality values determined thus are recalculated using the Colby-formula (see above).

Assay [5] deals with Spodoptera frugiperda. Put plainly: Spodoptera frugiperda spray test (Example E, maize leaf sections). The settings on record: 0.032 g ai/ha; mortality after 6 d. The procedure: Spodoptera frugiperda—Spray Test
as §4
To produce a suitable preparation of the active compound, 1 part by weight of active compound is mixed with the stated amount of solvent and emulsifier, and the concentrate is diluted with emulsifier-containing water to the desired concentration. To produce a suitable preparation of spore suspension the spores are diluted with emulsifier-containing water to the desired concentration.
Maize (Zea mais) leaf sections are sprayed with a preparation of the active ingredient of the desired concentration. Once dry, the leaf sections are infested with fall armyworm larvae (Spodoptera frugiperda).
After the specified period of time, mortality in % is determined 100% means all caterpillars have been killed and 0% means none of the caterpillars have been killed. The mortality values determined thus are recalculated using the Colby-formula (see above).

In assay [6] the test system is Spodoptera frugiperda. Put plainly: Spodoptera frugiperda test (SPODFR) (Example F, maize leaves). The settings on record: 0.075 g ai/ha; mortality after 3 d. How it is done:
Spodoptera frugiperda—Test (SPODFR)
Solvent: 7 parts by weight of dimethylformamide Emulsifier: 1 part by weight of alkylaryl polyglycolether
as §7
Maize leaves (Zea mais) are treated by being sprayed with the preparation of the active compound of the desired concentration and are infested with caterpillars of the fall army worm (Spodoptera frugiperda). The mortality values determined thus are recalculated using the Colby-formula (see above).
After the specified period of time, mortality in % is determined 100% means all the caterpillars have been killed; 0% means none of the caterpillars have been killed.

As to Abamectin, in the assay on Myzus persicae [1] (2 ppm), the “Efficacy in % after 5 d” value is listed as 30%.
With `N#Cc1nn(-c2c(Cl)cc(C(F)(F)F)cc2Cl)c(N)c1[S+]([O-])C(F)(F)F` (centres unmarked) [Fipronil], the “Efficacy in % after 6 d” value in the assay on Myzus persicae [2] (100 g ai/ha) and in the assay on Tetranychus urticae [3] (100 g ai/ha) was 0% each time.
Regarding `CN/C(=N\[N+](=O)[O-])NCc1cnc(Cl)s1` [Clothianidin], the “Efficacy in % after 4 d” value with Myzus persicae [1] (0.125 ppm) came out at 3%; in the assay with Myzus persicae [1] (0.25 ppm), 10%; in the assay with Myzus persicae [1] (0.5 ppm), 65%. Further, the “Efficacy in % after 1 d” value in the assay on Aphis gossypii (0.25 ppm) amounted to 3%; with Aphis gossypii (0.5 ppm), 8%. The “Efficacy in % after 6 d” value in the assay with Phaedon cochleariae (20 g ai/ha) was 50%.
For Spinosad, the “Efficacy in % after 2 d” value with Tetranychus urticae [3] (4 g ai/ha) is recorded as 0%.
As to `CC1(C)C(C=C(Cl)Cl)C1C(=O)OC(C#N)c1ccc(F)c(Oc2ccccc2)c1` (stereo not drawn) [β-Cyfluthrin, beta-Cyfluthrin], the “Efficacy in % after 6 d” value in the assay on Myzus persicae [2] (0.16 g ai/ha) and in the assay with Tetranychus urticae [3] (4 g ai/ha) was 0% each time.
In the case of `CC(c1ccc(C(F)(F)F)nc1)S(C)(=O)=NC#N` (centres unmarked) [Sulfoxaflor], the “Efficacy in % after 6 d” value with Myzus persicae [2] (0.16 g ai/ha) amounted to 70%.
Turning to `CNC(=O)c1cc(Cl)cc(C)c1NC(=O)c1cc(Br)nn1-c1ncccc1Cl` [Chlorantraniliprole], in the assay on Myzus persicae [1] (8 ppm), the “Efficacy in % after 5 d” value is recorded as 60%. Besides, the results for the “Efficacy in % after 1 d” value in the assay on Aphis gossypii (4 ppm) and with Aphis gossypii (8 ppm) were 10% and 50%, respectively.
For the compound `CNC(=O)Oc1cc(C)c(SC)c(C)c1` [Methiocarb], the figures for the “Efficacy in % after 6 d” value in the assay on Myzus persicae [2] (500 g ai/ha) and in the assay with Tetranychus urticae [3] (100 g ai/ha) were 0% and 20%, respectively.
For `CN1COCN(Cc2cnc(Cl)s2)/C1=N\[N+](=O)[O-]` [Thiamethoxam], the “Efficacy in % after 1 d” value with Myzus persicae [2] (0.8 g ai/ha) turned out to be 70%.
On to `Cc1cc(F)c(-n2nc(C(F)(F)F)nc2N)cc1[S+]([O-])CC(F)(F)F` (centres unmarked) [I277, 1-{2-fluoro-4-methyl-5-[(2,2,2-trifluorethyl)sulfinyl]phenyl}-3-(trifluoromethyl)-1H-1,2,4-triazol-5-amine], for which the “Efficacy in % after 6 d” value in the assay with Tetranychus urticae [4] stood at 25%; with Tetranychus urticae [3] (4 g ai/ha), 70%.
Consider `CNC(=O)c1cc(C#N)cc(C)c1NC(=O)c1cc(Br)nn1-c1ncccc1Cl` [Cyantraniliprole], for which the “Efficacy in % after 6 d” value in the assay on Myzus persicae [2] (0.8 g ai/ha) and in the assay on Phaedon cochleariae (0.8 g ai/ha) was 0% each time.
As to `N#C/N=C1\SCCN1Cc1ccc(Cl)nc1` [Thiacloprid], the “Efficacy in % after 6 d” value in the assay on Myzus persicae [2] (0.16 g ai/ha) was determined as 0%.
As for `Cc1cc(C)c(C2=C(OC(=O)CC(C)(C)C)C3(CCCC3)OC2=O)c(C)c1` [Spiromesifen], the “Efficacy in % after 6 d” value in the assay on Tetranychus urticae [3] (0.8 g ai/ha) was 30%.
As to `O=C1C=C(N(Cc2ccc(Cl)nc2)CC(F)F)CO1` [Flupyradifurone], the “Efficacy in % after 6 d” value in the assay with Myzus persicae [2] (0.8 g ai/ha) is given as 0%.
With Spinetoram, the “Efficacy in % after 6 d” value in the assay on Spodoptera frugiperda [5] is listed as 33%. In addition, in the assay on Tetranychus urticae [3] (4 g ai/ha), the “Efficacy in % after 2 d” value is reported as 20%.
On to `Cc1cc(C(F)(C(F)(F)F)C(F)(F)F)ccc1NC(=O)c1cccc(I)c1C(=O)NC(C)(C)CS(C)(=O)=O` [Flubendiamide], for which, in the assay on Spodoptera frugiperda [6], the “Efficacy in % after 3 d” value is listed as 18%.
On to `CC1(C)[C@H](C(=O)O[C@H](C#N)c2cccc(Oc3ccccc3)c2)[C@@H]1C=C(Br)Br` [Deltamethrin], for which the “Efficacy in % after 6 d” value in the assay with Tetranychus urticae [3] (4 g ai/ha) came out at 0%.
Consider `CCOC(=O)OC1=C(c2cc(C)ccc2C)C(=O)N[C@]12CC[C@@H](OC)CC2` [Spirotetramat], for which the “Efficacy in % after 6 d” value in the assay on Myzus persicae [2] (0.8 g ai/ha) and in the assay with Tetranychus urticae [3] (0.8 g ai/ha) was 0% throughout.
In the case of `Cc1c(F)c(F)c(COC(=O)[C@@H]2[C@H](/C=C(\Cl)C(F)(F)F)C2(C)C)c(F)c1F` (racemic) [Tefluthrin], the “Efficacy in % after 6 d” value in the assay on Phaedon cochleariae (10 g ai/ha) worked out at 0%.
In the case of `CS/C(C)=N\OC(=O)N(C)SN(C)C(=O)O/N=C(\C)SC` [Thiodicarb], in the assay with Myzus persicae [2] (100 g ai/ha), the “Efficacy in % after 6 d” value came to 0%.
For the compound `O=[N+]([O-])NC1=NCCN1Cc1ccc(Cl)nc1` [Imidacloprid], the “Efficacy in % after 1 d” value in the assay on Myzus persicae [2] (0.16 g ai/ha) turned out to be 70%.
